Data taken from US8633315B2, “Substituted hydroxyethyl amine compounds as beta-secretase modulators and methods of use” (Amgen Inc., priority 2007, dated 2014).
Where two headings read alike, the source gives them in different places.

Experiments:
[1] = system: Cells stably expressing Amyloid Precursor Protein (APP); test: In vitro BACE cell-based assay (HEK cell assay): Aβ40 in conditioned medium by sandwich ELISA; conditions: Homo sapiens
Method: In Vitro BACE Cell-Based Assay:
The cell-based assay measures inhibition or reduction of Aβ40 in conditioned medium of test compound treated cells expressing amyloid precursor protein.
Cells stably expressing Amyloid Precursor Protein (APP) were plated at a density of 40K cells/well in 96 well plates (Costar). The cells were cultivated for 24 hours at 37° C. and 5% CO2 in DMEM supplemented with 10% FBS. The test compounds were then added to cells in 10-point dose response concentrations with the starting concentration being either 100 μM or 10 μM. The compounds were diluted from stock solutions in DMSO and the final DMSO concentration of the test compounds on cells was 0.1%. After 24 h of incubation with the test compounds the supernatant conditioned media was collected and the Aβ 40 levels were determined using a sandwich ELISA. The IC50 of the compound was calculated from the percent of control or percent inhibition of Aβ 40 as a function of the concentration of the test compound.
The sandwich ELISA to detect Aβ 40 was performed in 96 well microtiter plates, which were pre-treated with goat anti-rabbit IgG (Pierce). The capture and detecting antibody pair that were used to detect Aβ 40 from cell supernatants were affinity purified pAb40 (Biosource) and biotinylated 6E10 (Signet Labs Inc.), respectively. The optimal concentration for the pAb40 antibody was 3 μg/ml in Superblock/TBS (Pierce) that was supplemented with 0.05% Tween 20 (Sigma). Optimal concentration for the detection antibody 6E10-biotinylated was 0.5 μg/ml in Superblock/TBS (Pierce) that had been supplemented with 2% normal goat serum and 2% normal mouse serum.
Cellular supernatants were incubated with the capture antibody for 3 h at 4° C., followed by 3 wash steps in TBS-tween (0.05%). The detecting antibody incubation was for 2 h at 4° C., again followed by the wash steps as described previously. The final readout of the ELISA is Time-Resolved Fluorescence (counts per minute) using Delfia reagents Streptavidin-Europium and Enhancement solutions (Perkin Elmer) and the Victor 2 multilabel counter (Perkin Elmer).
Of the compounds tested, in-the cell-based assay, data for each of Examples 33-156 is provided in Table 1 and Examples 208-246 are provided in Table 4.

[2] = biological target: BACE1 (Homo sapiens, UniProt P56817); test: In vitro enzymatic BACE FRET (fluorescence resonance energy transfer) assay; format: biochemical
How it was run: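 Fluorescence (ex 488 nm, […]) was read after Tris addition raised pH to neutral, ending a one-hour incubation. Reaction started with 50 nM fluorophore/quencher peptide substrate in pH 4.2 acetate (0.05 M) containing 100 uM genapol and 10% DMSO final.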

[3] = HEK293, 24 h, Aβ40 in conditioned medium after 24 h incubation

Chain of BACE1 (P56817 46-501, species assumed): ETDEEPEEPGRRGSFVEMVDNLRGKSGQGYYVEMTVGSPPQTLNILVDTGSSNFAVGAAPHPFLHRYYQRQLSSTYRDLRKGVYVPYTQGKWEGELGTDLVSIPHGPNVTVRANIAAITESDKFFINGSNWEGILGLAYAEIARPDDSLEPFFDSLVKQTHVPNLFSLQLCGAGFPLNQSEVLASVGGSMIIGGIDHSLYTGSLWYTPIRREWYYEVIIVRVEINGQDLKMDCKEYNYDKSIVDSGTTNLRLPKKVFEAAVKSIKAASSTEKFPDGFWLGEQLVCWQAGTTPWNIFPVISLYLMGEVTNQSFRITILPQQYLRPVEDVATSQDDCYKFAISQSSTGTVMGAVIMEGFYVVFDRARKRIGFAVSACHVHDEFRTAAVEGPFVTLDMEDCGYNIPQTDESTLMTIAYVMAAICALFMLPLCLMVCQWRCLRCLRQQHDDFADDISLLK

| IC50 [1, 3] [nM] | IC50 [2] [nM] | IC50 ([1]; HEK293) [nM] | IC50 ([2]; read-out: BACE 1 FRET assay) [nM] | SMILES |
| --- | --- | --- | --- | --- |
| 483 | 951 | – | – | C=CC[C@H](NC(=O)C(C)(C)F)[C@H](O)CN[C@H]1CC2(CCC2)Oc2ncc(CC(C)(C)C)cc21 [Example 141, N-((1S)-1-((1R)-2-(((4′S)-6′-(2,2-dimethylpropyl)-3′,4′-dihydrospiro[cyclobutane-1,2′-pyrano[2,3-b]pyridin]-4′-yl)amino)-1-hydroxyethyl)-3-buten-1-yl)-2-fluoro-2-methylpropanamide] |
| 998 | 212 | – | – | C=CC[C@H](NC(=O)c1cc(F)ccc1F)[C@H](O)CN[C@H]1CC2(CCC2)Oc2ncc(CC(C)(C)C)cc21 [Example 71, N-((1S)-1-((1R)-2-(((4′S)-6′-(2,2-dimethylpropyl)-3′,4′-dihydrospiro[cyclobutane-1,2′-pyrano[2,3-b]pyridin]-4′-yl)amino)-1-hydroxyethyl)-3-buten-1-yl)-2,5-difluorobenzamide] |
| 878 | 454 | – | – | C=CC[C@H](NC(=O)C1(OC)CC1)[C@H](O)CN[C@H]1CC2(CCC2)Oc2ncc(CC(C)(C)C)cc21 [Example 151, N-((1S)-1-((1R)-2-(((4′S)-6′-(2,2-dimethylpropyl)-3′,4′-dihydrospiro[cyclobutane-1,2′-pyrano[2,3-b]pyridin]-4′-yl)amino)-1-hydroxyethyl)-3-buten-1-yl)-1-(methyloxy)cyclopropanecarboxamide] |
| – | – | 2840 | 533 | CCC[C@H](NC(=O)[C@@H]1CCCO1)[C@H](O)CN[C@H]1CC2(CCC2)Oc2c1cc(CC(C)(C)C)nc2Cl [compound 224, (2S)-N-((1S)-1-((1R)-2-(((4′S)-8′-chloro-6′-(2,2-dimethylpropyl)-3′,4′-dihydrospiro[cyclobutane-1,2′-pyrano[2,3-c]pyridin]-4′-yl)amino)-1-hydroxyethyl)butyl)tetrahydro-2-furancarboxamide] |
| 133 | 18 | – | – | C#CCC(NC(=O)C1CCC(=O)O1)C(O)CNC1CC2(CCC2)Oc2ncc(CC(C)(C)C)cc21 [Example 37, (2R)-N-((1S)-1-((1R)-2-(((1s,3S,4′S)-6′-(2,2-dimethylpropyl)-3′,4′-dihydrospiro[cyclobutane-1,2′-pyrano[2,3-b]pyridin]-4′-yl)amino)-1-hydroxyethyl)-3-butyn-1-yl)-5-oxotetrahydro-2-furancarboxamide] |
| 60 | 49 | – | – | C=CCC(NC(=O)C1CN(C(C)=O)CCO1)C(O)CNC1CC2(CCC2)Oc2ncc(CC(C)(C)C)cc21 [Example 155, (2R)-4-acetyl-N-((1S)-1-((1R)-2-(((4′S)-6′-(2,2-dimethylpropyl)-3′,4′-dihydrospiro[cyclobutane-1,2′-pyrano[2,3-b]pyridin]-4′-yl)amino)-1-hydroxyethyl)-3-buten-1-yl)-2-morpholinecarboxamide; (2S)-4-acetyl-N-((1S)-1-((1R)-2-(((4′S)-6′-(2,2-dimethylpropyl)-3′,4′-dihydrospiro[cyclobutane-1,2′-pyrano[2,3-b]pyridin]-4′-yl)amino)-1-hydroxyethyl)-3-buten-1-yl)-2-morpholinecarboxamide] |
| 226 | 225 | – | – | C=CC[C@H](NC(=O)COC)[C@H](O)CN[C@H]1CC2(CCC2)Oc2ncc(CC(C)(F)F)cc21 [Example 121, N-((1S)-1-((1R)-2-(((4′S)-6′-(2,2-difluoropropyl)-3′,4′-dihydrospiro[cyclobutane-1,2′-pyrano[2,3-b]pyridin]-4′-yl)amino)-1-hydroxyethyl)-3-buten-1-yl)-2-(methyloxy)acetamide] |
| 90 | 84 | – | – | C=CC[C@H](NC(=O)COC)[C@H](O)CN[C@H]1CC2(CCC2)Oc2c1cc(CC(C)(C)C)nc2N1CCCC1 [Example 49, N-((1S)-1-((1R)-2-(((4′S)-6′-(2,2-dimethylpropyl)-8′-(1-pyrrolidinyl)-3′,4′-dihydrospiro[cyclobutane-1,2′-pyrano[2,3-c]pyridin]-4′-yl)amino)-1-hydroxyethyl)-3-buten-1-yl)-2-(methyloxy)acetamide] |
